{"source": "patent US8916711B2", "about": "“Imidazothiazole-chalcone derivatives as potential anticancer agents and process for the preparation thereof” (Council of Scientific and Industrial Research, priority 2009, dated 2014)", "assay_type_in_all_cases": "cell-based", "key": {"CCRF-CEM": {"system": "CCRF-CEM", "experiment": "NCI in vitro cytotoxicity (SRB, 48 h), Leukemia panel", "details": "Homo sapiens, 48 h exposure"}, "MOLT-4": {"system": "MOLT-4", "experiment": "NCI in vitro cytotoxicity (SRB, 48 h), Leukemia panel", "details": "Homo sapiens; MOLT-4, Leukemia; 48 h exposure"}, "HL-60(TB)": {"system": "HL-60(TB)", "experiment": "NCI in vitro cytotoxicity (SRB, 48 h), Leukemia panel", "details": "Homo sapiens, 48 h exposure", "procedure": "(§1) The imidazothiazole-chalcone hybrids 7a, 7e, 7f, 8f and 19e have been tested against sixty human tumour cell lines derived from nine cancer types (leukemia, non-small cell lung cancer, colon cancer, CNS cancer, melanoma, ovarian cancer, renal cancer, prostate cancer and breast cancer) as per NCI protocol. For each compound, dose response curves for individual cell lines have been measured at a minimum of five concentrations at 10 fold dilutions. A protocol of 48 h continuous drug exposure has been used, and a sulforhodamine B (SRB) protein assay was used to estimate cell viability or growth. The concentration for 50% cell growth inhibition (GI50), total cell growth inhibition (TGI, 0% growth) and 50% cell death (LC50, […]) compared with the control has been calculated (Table-1)."}, "SR": {"system": "SR", "experiment": "NCI in vitro cytotoxicity (SRB, 48 h), Leukemia panel", "details": "Homo sapiens, 48 h exposure", "procedure": "as §1"}, "A549/ATCC": {"system": "A549/ATCC", "experiment": "NCI in vitro cytotoxicity (SRB, 48 h), Non-small cell lung panel", "details": "Homo sapiens, 48 h exposure"}, "NCI-H322M": {"system": "NCI-H322M", "experiment": "NCI in vitro cytotoxicity (SRB, 48 h), Non-small cell lung panel", "details": "Homo sapiens, 48 h exposure"}, "NCI-H522": {"system": "NCI-H522", "experiment": "NCI in vitro cytotoxicity (SRB, 48 h), Non-small cell lung panel", "details": "Homo sapiens, 48 h exposure"}, "HCC-2998": {"system": "HCC-2998", "experiment": "NCI in vitro cytotoxicity (SRB, 48 h), Colon panel", "details": "Homo sapiens"}, "HCT-116": {"system": "HCT-116", "experiment": "NCI in vitro cytotoxicity (SRB, 48 h), Colon panel", "details": "Homo sapiens"}, "HT29": {"system": "HT29", "experiment": "NCI in vitro cytotoxicity (SRB, 48 h), Colon panel", "details": "Homo sapiens, HT-29, 48 h exposure"}, "KM12": {"system": "KM12", "experiment": "NCI in vitro cytotoxicity (SRB, 48 h), Colon panel", "details": "Homo sapiens, 48 h exposure"}, "SF-268": {"system": "SF-268", "experiment": "NCI in vitro cytotoxicity (SRB, 48 h), CNS panel", "details": "Homo sapiens; SF-268, CNS; 48 h exposure"}, "SF-295": {"system": "SF-295", "experiment": "NCI in vitro cytotoxicity (SRB, 48 h), CNS panel", "details": "Homo sapiens; SF-295, CNS; 48 h exposure"}, "SNB-19": {"system": "SNB-19", "experiment": "NCI in vitro cytotoxicity (SRB, 48 h), CNS panel", "details": "Homo sapiens; SNB-19, CNS; 48 h exposure"}, "SNB-75": {"system": "SNB-75", "experiment": "NCI in vitro cytotoxicity (SRB, 48 h), CNS panel", "details": "Homo sapiens; SNB-75, CNS; 48 h exposure"}, "U251": {"system": "U251", "experiment": "NCI in vitro cytotoxicity (SRB, 48 h), CNS panel", "details": "Homo sapiens, U-251, 48 h exposure"}, "OVCAR-3": {"system": "OVCAR-3", "experiment": "NCI in vitro cytotoxicity (SRB, 48 h), Ovarian panel", "details": "Homo sapiens; OVCAR-3, Ovarian; 48 h exposure"}, "OVCAR-4": {"system": "OVCAR-4", "experiment": "NCI in vitro cytotoxicity (SRB, 48 h), Ovarian panel", "details": "Homo sapiens; OVCAR-4, Ovarian; 48 h exposure"}, "OVCAR-8": {"system": "OVCAR-8", "experiment": "NCI in vitro cytotoxicity (SRB, 48 h), Ovarian panel", "details": "Homo sapiens"}, "NCI/ADR-RES": {"system": "NCI/ADR-RES", "experiment": "NCI in vitro cytotoxicity (SRB, 48 h), Ovarian panel", "details": "Homo sapiens, 48 h exposure"}, "SN12C": {"system": "SN12C", "experiment": "NCI in vitro cytotoxicity (SRB, 48 h), Renal panel", "details": "Homo sapiens, 48 h exposure"}, "TK-10": {"system": "TK-10", "experiment": "NCI in vitro cytotoxicity (SRB, 48 h), Renal panel", "details": "Homo sapiens; TK-10, Renal; 48 h exposure"}, "UO-31": {"system": "UO-31", "experiment": "NCI in vitro cytotoxicity (SRB, 48 h), Renal panel", "details": "Homo sapiens; UO-31, Renal; 48 h exposure"}, "HS 578T": {"system": "HS 578T", "experiment": "NCI in vitro cytotoxicity (SRB, 48 h), Breast panel", "details": "Homo sapiens, 48 h exposure"}, "T-47D": {"system": "T-47D", "experiment": "NCI in vitro cytotoxicity (SRB, 48 h), Breast panel", "details": "Homo sapiens, T47D, 48 h exposure"}, "MDA-MB-468": {"system": "MDA-MB-468", "experiment": "NCI in vitro cytotoxicity (SRB, 48 h), Breast panel", "details": "Homo sapiens; MDA-MB-468, Breast; 48 h exposure"}, "LOX IMVI": {"system": "LOX IMVI", "experiment": "NCI in vitro cytotoxicity (SRB, 48 h), Melanoma panel", "details": "Homo sapiens, 48 h exposure"}, "M14": {"system": "M14", "experiment": "NCI in vitro cytotoxicity (SRB, 48 h), Melanoma panel", "details": "Homo sapiens, 48 h exposure"}, "SK-MEL-5": {"system": "SK-MEL-5", "experiment": "NCI in vitro cytotoxicity (SRB, 48 h), Melanoma panel", "details": "Homo sapiens; SK-MEL-5, Melanoma; 48 h exposure"}, "Leukemia cell lines": {"system": "Leukemia cell lines", "experiment": "NCI in vitro cytotoxicity, whole panel", "details": "Homo sapiens"}, "Colon cancer cell lines": {"system": "Colon cancer cell lines", "experiment": "NCI in vitro cytotoxicity, whole panel", "details": "Homo sapiens"}, "Melanoma cell lines": {"system": "Melanoma cell lines", "experiment": "NCI in vitro cytotoxicity, whole panel", "details": "Homo sapiens"}, "Renal cancer cell lines": {"system": "Renal cancer cell lines", "experiment": "NCI in vitro cytotoxicity, whole panel", "details": "Homo sapiens"}, "[1]": {"system": "Prostate cancer cell lines", "experiment": "NCI in vitro cytotoxicity, whole panel", "details": "Homo sapiens"}, "Breast cancer cell lines": {"system": "Breast cancer cell lines", "experiment": "NCI in vitro cytotoxicity, whole panel", "details": "Homo sapiens"}}, "note": "pIC50: −log10 of the molar value. Where two headings read alike, the source gives them in different places.", "data": [{"molecule": "COc1ccc(-c2nc3sccn3c2/C=C/C(=O)c2cc(OC)c(OC)c(OC)c2)cc1", "note": "[Compound 7a, (E)-3-(6-(4-methoxyphenyl)imidazo[2,1-b]thiazol-5-yl)-1-(3,4,5-trimethoxyphenyl) prop-2-en-1-one]", "values": [{"measurement": "GI50", "setting": "CCRF-CEM", "result": 3080, "unit": "nM"}, {"measurement": "GI50", "setting": "MOLT-4", "result": 2520, "unit": "nM"}, {"measurement": "GI50", "setting": "HL-60(TB)", "result": 1660, "unit": "nM"}, {"measurement": "GI50", "setting": "SR", "result": 2330, "unit": "nM"}, {"measurement": "GI50", "setting": "A549/ATCC", "result": 2210, "unit": "nM"}, {"measurement": "GI50", "setting": "NCI-H322M", "result": 3700, "unit": "nM"}, {"measurement": "GI50", "setting": "NCI-H522", "result": 1970, "unit": "nM"}, {"measurement": "GI50", "setting": "HCC-2998; HCC-2998, Colon, 48 h exposure", "result": 1770, "unit": "nM"}, {"measurement": "GI50", "setting": "HCC-2998; HCC-2998, colon", "result": 1770, "unit": "nM"}, {"measurement": "pIC50", "setting": "HCT-116; HCT-116, HCT116, Table 4, read-out: Comparative efficacy", "result": 5.73}, {"measurement": "GI50", "setting": "HCT-116; HCT-116, Colon, 48 h exposure", "result": 1880, "unit": "nM"}, {"measurement": "GI50", "setting": "HCT-116; HCT-116, colon", "result": 1880, "unit": "nM"}, {"measurement": "GI50", "setting": "HT29", "result": 3120, "unit": "nM"}, {"measurement": "GI50", "setting": "KM12", "result": 2650, "unit": "nM"}, {"measurement": "GI50", "setting": "SF-268", "result": 2890, "unit": "nM"}, {"measurement": "GI50", "setting": "SF-295", "result": 2730, "unit": "nM"}, {"measurement": "GI50", "setting": "SNB-19", "result": 3540, "unit": "nM"}, {"measurement": "GI50", "setting": "SNB-75", "result": 2290, "unit": "nM"}, {"measurement": "GI50", "setting": "U251", "result": 3050, "unit": "nM"}, {"measurement": "GI50", "setting": "OVCAR-3", "result": 2230, "unit": "nM"}, {"measurement": "GI50", "setting": "OVCAR-4", "result": 4050, "unit": "nM"}, {"measurement": "GI50", "setting": "OVCAR-8; OVCAR-8, Ovarian, 48 h exposure", "result": 2010, "unit": "nM"}, {"measurement": "GI50", "setting": "OVCAR-8; OVCAR-8, ovarian", "result": 2010, "unit": "nM"}, {"measurement": "GI50", "setting": "NCI/ADR-RES", "result": 2570, "unit": "nM"}, {"measurement": "GI50", "setting": "SN12C", "result": 2880, "unit": "nM"}, {"measurement": "GI50", "setting": "TK-10", "result": 5040, "unit": "nM"}, {"measurement": "GI50", "setting": "UO-31", "result": 1120, "unit": "nM"}, {"measurement": "GI50", "setting": "HS 578T", "result": 1900, "unit": "nM"}, {"measurement": "GI50", "setting": "T-47D", "result": 2260, "unit": "nM"}, {"measurement": "GI50", "setting": "MDA-MB-468", "result": 2960, "unit": "nM"}, {"measurement": "GI50", "setting": "LOX IMVI", "result": 2420, "unit": "nM"}, {"measurement": "GI50", "setting": "M14", "result": 2330, "unit": "nM"}, {"measurement": "GI50", "setting": "SK-MEL-5", "result": 1300, "unit": "nM"}, {"measurement": "GI50", "setting": "Leukemia cell lines; Leukemia, average of six to eight cell lines, read-out: Log10 GI50 (converted)", "result": 2240, "unit": "nM"}, {"measurement": "CC50", "setting": "Leukemia cell lines; Leukemia, average of six to eight cell lines, read-out: Log10 LC50 (converted)", "result": "≥ 100000", "unit": "nM"}, {"measurement": "GI50", "setting": "Leukemia cell lines; exposure period of at least 48 hrs, read-out: GI50, range over leukemia cell lines", "result": "1660 to 3080", "unit": "nM"}, {"measurement": "GI50", "setting": "Colon cancer cell lines; Colon, average of six to eight cell lines, read-out: Log10 GI50 (converted)", "result": 2630, "unit": "nM"}, {"measurement": "CC50", "setting": "Colon cancer cell lines; Colon, average of six to eight cell lines, read-out: Log10 LC50 (converted)", "result": 72400, "unit": "nM"}, {"measurement": "GI50", "setting": "Colon cancer cell lines; exposure period of at least 48 hrs, read-out: GI50, range over colon cell lines", "result": "1770 to 3450", "unit": "nM"}, {"measurement": "GI50", "setting": "Melanoma cell lines; Melanoma, average of six to eight cell lines, read-out: Log10 GI50 (converted)", "result": 2630, "unit": "nM"}, {"measurement": "CC50", "setting": "Melanoma cell lines; Melanoma, average of six to eight cell lines, read-out: Log10 LC50 (converted)", "result": 70800, "unit": "nM"}, {"measurement": "GI50", "setting": "Melanoma cell lines; exposure period of at least 48 hrs, read-out: GI50, range over melanoma cell lines", "result": "1300 to 5420", "unit": "nM"}, {"measurement": "GI50", "setting": "Renal cancer cell lines; Renal, average of six to eight cell lines, read-out: Log10 GI50 (converted)", "result": 2510, "unit": "nM"}, {"measurement": "CC50", "setting": "Renal cancer cell lines; Renal, average of six to eight cell lines, read-out: Log10 LC50 (converted)", "result": "≥ 100000", "unit": "nM"}, {"measurement": "GI50", "setting": "Renal cancer cell lines; exposure period of at least 48 hrs, read-out: GI50, range over renal cell lines", "result": "1120 to 5040", "unit": "nM"}, {"measurement": "GI50", "setting": "[1]; Prostate cell, exposure period of at least 48 hrs, read-out: GI50, range over prostate cell lines", "result": "2620 to 3100", "unit": "nM"}, {"measurement": "GI50", "setting": "[1]; Prostate, average of the panel's cell lines, read-out: Log10 GI50 (converted)", "result": 2880, "unit": "nM"}, {"measurement": "LC50", "setting": "[1]; Prostate, average of the panel's cell lines, read-out: Log10 LC50 (converted)", "result": "≥ 100000", "unit": "nM"}, {"measurement": "GI50", "setting": "Breast cancer cell lines; Breast, average of six to eight cell lines, read-out: Log10 GI50 (converted)", "result": 2510, "unit": "nM"}, {"measurement": "CC50", "setting": "Breast cancer cell lines; Breast, average of six to eight cell lines, read-out: Log10 LC50 (converted)", "result": "≥ 100000", "unit": "nM"}, {"measurement": "pIC50", "setting": "Breast cancer cell lines; exposure period of at least 48 hrs, read-out: IC50, range over breast cell lines", "result": "5.46 to 5.72"}]}]}
